Laboratory results published in paper PMC5839231, “Isolation and Characterization of Protein Tyrosine Phosphatase 1B (PTP1B) Inhibitory Polyphenolic Compounds From Dodonaea viscosa and Their Kinetic Analysis” (Frontiers in Chemistry, 2018).
Read-outs that look alike come from different tables or passages of the source.

Assays:
[1] = target: T1, Protein tyrosine phosphatase 1B (PTP1B) (Homo sapiens, UniProt P18031); assay: PTP1B inhibitory assay (hydrolysis of p-nitrophenyl phosphate, 405 nm); assay type: biochemical; details: for IC50: pNPP substrate, 37°C, experiments repeated three times
T1 sequence (P18031 1-435): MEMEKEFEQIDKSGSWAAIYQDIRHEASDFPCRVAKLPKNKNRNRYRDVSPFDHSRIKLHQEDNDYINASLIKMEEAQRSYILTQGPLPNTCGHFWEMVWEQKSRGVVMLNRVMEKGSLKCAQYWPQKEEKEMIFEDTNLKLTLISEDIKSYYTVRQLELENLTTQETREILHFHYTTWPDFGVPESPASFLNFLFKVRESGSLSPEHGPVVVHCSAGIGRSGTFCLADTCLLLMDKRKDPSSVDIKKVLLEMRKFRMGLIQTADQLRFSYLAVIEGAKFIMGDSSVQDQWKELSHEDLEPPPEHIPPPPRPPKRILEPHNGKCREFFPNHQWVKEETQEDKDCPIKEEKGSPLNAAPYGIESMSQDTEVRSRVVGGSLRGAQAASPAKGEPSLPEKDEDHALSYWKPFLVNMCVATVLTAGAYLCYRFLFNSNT
Method: (§1) Protein tyrosine phosphatase 1B inhibitory assay was performed with slight modification to the previously reported method (Song et al., [2017]). Tris–HCl buffer (25 mM, pH 7.5) which contained 1 mM (ethylenediaminetetraacetic acid) EDTA, 1 mM dithiothreitol (DTT), and 2 mM β-mercaptoethanol was used as buffer solution, whereas p-nitrophenyl phosphate (pNPP), a substrate of PTP1B was utilized for enzyme activity measurement. Enzyme assay was started by mixing 10 μL of test compounds with 130 μL of Tris-HCl buffer solution in 96-well plate, then 20 μL of enzyme (EC 3.1.3.48, 1μg/mL), and finally 40 μL of substrate (4 mM pNPP) was added at 37°C for 10 min. During the substrate hydrolysis, pNPP was de-phosphorylated, giving product pNP, which was detected by Spectra Max M3 Multi-Mode Microplate reader (Molecular devices, USA) at a wavelength of 405 nm for 30 min. […] Kinetic parameters were determined by Line weaver-Burk and Dixon plots. Sigma Plot (SPCC Inc., Chicago, IL, USA) was utilized for data setting and calculation.

[2] = target: T1, Protein tyrosine phosphatase 1B (PTP1B); assay: PTP1B inhibitory kinetics (Lineweaver-Burk, Dixon and secondary plots); assay type: biochemical; details: for Type of inhibition: Lineweaver-Burk plots, substrate 0.437-1.75 mM pNPP
Method: as §1
In order to study detailed kinetics of PTP1B, Michaelis-Menten equation (4) is applied, who's reciprocal is taken which transform to a new equation, Line weaver-Burk equation (5). Using this equation Line weaver-Burk plots were constructed, which were applied for the analysis of inhibitory kinetics of test compounds. Different inhibitor concentrations accompanied with varying substrate concentrations were used for determination of enzymes steady-state rates, subsequently kinetic parameters related to PTP1B inhibition were also determined. The values of inhibitory constants KI and KIS, when free enzyme binds with inhibitor (KI) or enzyme-substrate-complex interact with inhibitor (KIS) were obtained from secondary plots of the slopes and vertical intercept (1/V^appmax) vs. inhibitors concentration. The representative Equations (1–3) were used to acquire KI and KIS values (Chiari et al., [2011]).
For inhibition parameters, an assay was performed having different substrate concentrations (0.437–1.75 mM), and several dilutions of tested compounds.
The effects of different concentrations of the bioactive active compounds on the hydrolysis of p-nitrophenyl phosphate by PTP1B were studied. We assayed different concentrations (3.75, 7.5, 15, 30, 60, and 120 μM) of inhibitors (1-9) with the given enzyme and substrate. As a result, we observed a gradual decrease in enzyme activity (% activity) with increasing inhibitors concentrations as shown in Figure 2A. […] Plots of residual enzyme activity vs. enzyme concentration at different concentrations (0, 6.7, 13.5, and 27 μM) of compound 4 gave a family of lines which intersected on x-axis at 0 intercept. […] In order to explore the mechanistic behavior and kinetic features of the tested compounds, detailed kinetic study was performed. For this purpose the target enzyme was assayed in different concentrations of substrate (0.437, 0.875, 1.75 mM), in the presence of several dilutions of the respective compound, been graphically presented in double reciprocal plots (Linweaver-Burk and Dixon plots). Representatively, here we have explained compound 4 in detail, the Lineweaver-Burk plots of (4) produced a family of straight lines which intersected on the left side of y-axis and above the x-axis as shown in Figure 3A. The inhibitory constants (KI and KIS) were obtained by plotting the slopes and intercepts vs. different concentrations of compound 4 (Figure 3A, insets). […] In kinetic plots the abscissa [I] is the concentration of compound, where the coordinate1/V represents reciprocal of enzyme activity.

[3] = from Dixon plots, read-out: Ki (inhibition constant)

IC50 [1] | Type of inhibition [2] | Ki [2, 3] | fold more potency than mother skeleton 1 ([1]; IC50 comparison with compound 1) | fold more potency than mother skeleton 2 ([1]; IC50 comparison with compound 2) | Reversibility of inhibition ([2]; residual enzyme activity vs. enzyme concentration at 0, 6.7, 13.5, 27 μM inhibitor) | KIS (inhibitor binding to enzyme-substrate complex) ([2]; secondary plot of intercepts vs. inhibitor concentration, Equation 3) | Ki ([2]; secondary plot of slopes vs. inhibitor concentration, Equation 2, read-out: KI (inhibitor binding to free enzyme)) | Structure (SMILES)
20.5 ± 0.8 µM | Non-competitive | 13 µM |  |  |  |  |  | CC1OC(OCC2OC(Oc3c(-c4ccc(O)cc4)oc4cc(O)cc(O)c4c3=O)C(O)C(O)C2O)C(O)C(O)C1O (centres unmarked) [Compound 8, Kaempferol 3-O-rutinoside]
28.4 ± 0.9 µM | Mixed | 10.1 µM |  |  |  |  |  | C=C(C)C(O)Cc1cc(-c2oc3cc(O)c(OC)c(O)c3c(=O)c2OC)ccc1OC (centres unmarked) [Compound 5, 5,7-dihydroxy-3′-(2-hydroxy-3-methylbutenyl)-3,6,4′-trimethoxy-flavone]
41.8 ± 0.5 µM | Mixed | 14.3 µM |  |  |  |  |  | COc1c(O)cc2oc(-c3ccc(O)c(CCC(C)CO)c3)c(OC)c(=O)c2c1O (centres unmarked) [Compound 7, 5,7,4′-trihydroxy-3′-(3-hydroxymethylbutyl)-3,6-dimethoxyflavone]
18.7 ± 0.6 µM | Mixed | 6.9 µM |  |  |  |  |  | COc1c(O)cc2oc(-c3ccc(O)cc3)c(OC)c(=O)c2c1O [Compound 3, viscosine]
57.9 ± 0.6 µM | Mixed | 27.3 µM |  |  |  |  |  | COc1cc2oc(-c3ccc(O)cc3)c(OC)c(=O)c2c(O)c1OC [Compound 1, penduletin]
13.5 ± 0.3 µM | mixed type I | 4.6 µM | 6 fold | 2.5 fold | reversible | 26.4 ± 0.4 µM | 4.1 ± 0.2 µM | COc1ccc(-c2oc3cc(O)c(OC)c(O)c3c(=O)c2OC)cc1CC=C(C)C [Compound 4, 5,7-dihydroxy-3,6-dimethoxy-2-(4-methoxy-3-(3-methylbut-2-enyl)phenyl)-4H-chromen-4-one]
56 ± 0.3 µM | Mixed | 22.8 µM |  |  |  |  |  | COc1ccc(-c2oc3cc(O)c(OC)c(O)c3c(=O)c2OC)cc1CCC(C)CO (centres unmarked) [Compound 6]
42.9 ± 0.4 µM | Non-competitive | 26.4 µM |  |  |  |  |  | COc1cc(-c2oc3cc(O)cc(O)c3c(=O)c2OC2OC(COC3OC(C)C(O)C(O)C3O)C(O)C(O)C2O)ccc1O (centres unmarked) [Compound 9, Isorhamnetin3-O-robinobioside]
